According to patent US6794376B2, “Methods and compositions for enhancing diffusion of therapeutic agents through tissue” (William Beaumont Hospital, priority 2000, dated 2004):

Experiments:
[1] = test system: Spheroids made from MCF-7 human breast carcinoma cells; test: Doxorubicin penetration and morphology in MCF-7 spheroids treated with permeabilizer, with or without hyperthermia; type: cell-based
Protocol: Spheroids made from MCF-7 human breast carcinoma cells were treated with 3.0 micrograms per milliliter doxorubicin for six hours at various temperatures and under various permeabilizer conditions. Doxorubicin is an anti-neoplastic drug frequently used in chemotherapy procedures. When the spheroids were treated for six hours at 37.0° C. in the absence of permeabilizer, the drug penetrated only six cell layers into the spheroids. […] The spheroids in this experiment also underwent a characteristic change in morphology. […] These changes in spheroid morphology and drug penetration were never observed in control spheroids that received no permeabilizer treatment. Furthermore, these changes were never observed in spheroids that received sham treatment, which included exposure to all components used in the permeabilizer emulsion except the permeabilizer.
In this example, spheroids were treated as in example 1 with the addition of hyperthermia as an additional variable in the experiment. Hyperthermia in this example involved raising the temperature of the spheroids to approximately 40° C. […] Hyperthermia treatment alone had no effect on penetration of doxorubicin or upon the intercellular space.

[2] = Highest permeabilizer concentration that gives a stable emulsion; type: physicochemical
Protocol: As indicated above, prior to delivery to the tissue of interest, a working emulsion of the permeabilizer is prepared, preferably from one of the stocks. The working emulsion preferably comprises one or more permeabilizers in a buffer. The concentration of the permeabilizer will depend on the permeabilizer used in the procedure being conducted. Because ethylene brassylate and civetone are liquids, they can be administered to a tissue at concentrations up to 100%. Preferably, the working emulsion contains ethylene brassylate, civetone, or a combination of both at a concentration of between approximately 0.1 and 20% (volume/volume). As indicated above, Cyclopentadecanone and cyclopentadecanolide, however, are solids. The highest concentration of cyclopentadecanone or cyclopentadecanolide that can be made into a stable emulsion is approximately 25% (weight/volume). As a result, the working emulsion preferably contains cyclopentadecanone or cyclopentadecanolide at a concentration of between approximately 0.1 and 25%. Particularly preferred is a working solution that contains cyclopentadecanone, cyclopentadecanolide, or a combination of both, at a concentration of between approximately 0.1 and 7%.

[3] = test system: spheroids made from DU-145 human prostate carcinoma cells; test: Adenovirus vector (beta-galactosidase reporter) penetration into DU-145 spheroids treated with permeabilizer, with or without hyperthermia; type: cell-based
Protocol: The spheroids made from DU-145 human prostate carcinoma cells were grown to an average diameter of 500 micrometers and then suspended in culture medium containing 0.1% to 3% cyclopentadecanolide plus adenovirus vectors that had beta-galactosidase as a reporter transgene. Once a viral vector entered a cell, beta-galactosidase was expressed constitutively under control of the human CMV promoter. The experimental protocol called for the spheroids to be incubated for 48 to 72 hours following treatment to permit transgene expression. It should be noted that a reporter gene was utilized in this Example, as well as in Examples 4 and 5, only to facilitate determination of the extent of vector diffusion. Any other polynucleotide could be used in this system, including suicide genes and genes encoding therapeutic proteins.
Within 6 to 24 hours following permeabilizer treatment, depending upon the permeabilizer concentration used, the cells within the spheroid regions where the intercellular space was increased became detached from the spheroid.

[4] = test system: Du-145 tumors grafted onto mice; test: Adenovirus vector diffusion (X-gal staining) in Du-145 xenograft tumors injected with permeabilizer, with or without hyperthermia; type: in vivo; conditions: single injection of 30 microliters, tumor retrieved at 72 hours
Protocol: Du-145 tumors grafted onto mice were injected with cyclopentadecanolide and adenovirus vector that contained the beta-galactosidase transgene, all in PBS. The tumor was retrieved 72 hours after treatment, cryosectioned, and stained with X-gal to visualize beta-galactosidase expression.
In this example, tumors were heated to 41.0° C. using an unfocused ultrasonic transducer prior to treatment with permeabilizer and virus vector. When hyperthermia was established, the tumor was given a single injection of 30 microliters containing 6% cyclopertadecanolide and 2×10^10 adenovirus vectors that contained the beta-galactosidase transgene, all in PBS. Following the injection, the hyperthermia was continued for an additional 45 minutes. That is, the elevated temperature was maintained for 45 minutes after injection. The tumor was retrieved 72 hours following the injection, cryosectioned, and stained with X-gal to visualize beta-galactosidase expression.
The voids were filled with light amber colored, gelatinous material, indicating break-down of the tissue cell membranes.

[5] = 6% permeabilizer and 2×10^10 adenovirus vectors, hyperthermia 41.0° C. kept for 45 minutes after injection

Compound	depth of doxorubicin penetration into the spheroids ([1]; 3.0 micrograms per milliliter doxorubicin, six hours, 37.0° C., absence of permeabilizer)	effect of hyperthermia treatment alone on penetration of doxorubicin ([1]; hyperthermia approximately 40° C., no permeabilizer)	spheroid morphology / intercellular space ([1]; 0.6% cyclopentadecanone, 37.0° C., six hours)	degree to which doxorubicin penetrated the spheroids ([1]; 3.0 micrograms per milliliter doxorubicin, six hours, culture medium containing 0.6% cyclopentadecanone, 37.0° C.)	permeabilizer activity with concurrent hyperthermia ([1]; as example 1 plus hyperthermia, approximately 40° C.)	doxorubicin penetration with permeabilizer and hyperthermia ([1]; as example 1 plus hyperthermia, approximately 40° C., doxorubicin fluorescence)	intercellular space with concurrent hyperthermia ([1]; as example 1 plus hyperthermia, approximately 40° C., intact and sectioned spheroids)	highest concentration that can be made into a stable emulsion [2]	transgene expression in cells that detached from the spheroids ([3]; 0.1% to 3% cyclopentadecanolide plus adenovirus vectors with beta-galactosidase reporter transgene)	cell detachment from the spheroid when hyperthermia was included ([3]; 0.1% to 3% cyclopentadecanolide plus hyperthermia)	X-gal staining from beta-galactosidase expression in tumor sections [4, 5]	tumor section morphology (tissue destruction) [4, 5]	X-gal staining from beta-galactosidase expression in tumor sections ([4]; 12% cyclopentadecanolide and 2×10^10 adenovirus vectors, no hyperthermia)
COc1cccc2c1C(=O)c1c(O)c3c(c(O)c1C2=O)C[C@@](O)(C(=O)CO)C[C@@H]3O[C@H]1C[C@H](N)[C@H](O)[C@H](C)O1 [doxorubicin, reference compound]	six	no effect											
O=C1CCCCCCCCCCCCCC1 [cyclopentadecanone]			increase in intercellular space	essentially tripled	marked potentiation of permeabilizer activity	penetrated all recesses of the spheroids	greater increase in intercellular space	approximately 25 % (weight/volume)					
O=C1CCCCCCCCCCCCCCO1 [cyclopentadecanolide]								approximately 25 % (weight/volume)	exhibit beta-galactosidase activity	grossly exacerbated	pervaded the remainder of the sections	large voids in the center of the sections	pervasive throughout the section
